molecular target: T1, Trp-p8 (Homo sapiens, UniProt Q7Z2W7, T58I); experiment: Cell viability (ATP) assay for Trp-p8 antagonists: protection of CHO/Trp-p8 cells from toxic control agonist D-1607; assay type: cell-based; details: Table 2, Formula VIII antagonists; 10 μM compound plus toxic concentration of control agonist D-1607, CHO/Trp-p8 cells, 37° C.; ATP level relative to DMSO
T1 construct: expressed in transfected cells
Protocol: FIG. 4 is a graph depicting exemplary results from a primary screen for Trp-p8 antagonists using the ATP viability assay, described herein, with CHO/Trp-p8 cells at 37° C. CHO/Trp-p8 cells were exposed to compounds, at different concentrations, in 1% DMSO or 1% DMSO in combination with a toxic concentration of the Trp-p8 agonist 1607. The viability of cells was measured after 24-26 hours at 37° C. using the ATP assay.
As a primary screen for efficacy and specificity for agonists, both the non-transfected CHO and CHO/Trp-p8 cells were exposed to 10 μM of test compounds in 1% dimethylsulfoxide (DMSO) or 1% DMSO (control) in a 96-well black walled, black-bottomed, cell-culture treated plate. DMSO was the solvent for all of the compounds tested. After 24-26 hours at 37° C., the cells were lysed and ATP concentration determined via a chemiluminescence assay using a commercially available reagent kit—Cell Titer-Glo (Promega; Madison, Wis.). […] (EC50 is defined herein as the agonist concentration at which there is a 50% reduction in cell viability).
Trp-p8 antagonists were identified by employing a cell viability assay with CHO/Trp-p8 cells at 37° C. (see Example 7) with the following modification. Within the context of the present invention, compounds that protect CHO/Trp-p8 cells from the toxic effect of a control agonist thereby maintaining the viability of the CHO/Trp-p8 cell exposed to a Trp-p8 agonist is defined as antagonist. As a primary screen for antagonists, CHO/Trp-p8 cells were exposed to 10 μM of test compounds in 1% dimethylsulfoxide (DMSO) or 1% DMSO plus a toxic concentration of a control agonist, D-1607.

T1 sequence (Q7Z2W7 whole entry T58I): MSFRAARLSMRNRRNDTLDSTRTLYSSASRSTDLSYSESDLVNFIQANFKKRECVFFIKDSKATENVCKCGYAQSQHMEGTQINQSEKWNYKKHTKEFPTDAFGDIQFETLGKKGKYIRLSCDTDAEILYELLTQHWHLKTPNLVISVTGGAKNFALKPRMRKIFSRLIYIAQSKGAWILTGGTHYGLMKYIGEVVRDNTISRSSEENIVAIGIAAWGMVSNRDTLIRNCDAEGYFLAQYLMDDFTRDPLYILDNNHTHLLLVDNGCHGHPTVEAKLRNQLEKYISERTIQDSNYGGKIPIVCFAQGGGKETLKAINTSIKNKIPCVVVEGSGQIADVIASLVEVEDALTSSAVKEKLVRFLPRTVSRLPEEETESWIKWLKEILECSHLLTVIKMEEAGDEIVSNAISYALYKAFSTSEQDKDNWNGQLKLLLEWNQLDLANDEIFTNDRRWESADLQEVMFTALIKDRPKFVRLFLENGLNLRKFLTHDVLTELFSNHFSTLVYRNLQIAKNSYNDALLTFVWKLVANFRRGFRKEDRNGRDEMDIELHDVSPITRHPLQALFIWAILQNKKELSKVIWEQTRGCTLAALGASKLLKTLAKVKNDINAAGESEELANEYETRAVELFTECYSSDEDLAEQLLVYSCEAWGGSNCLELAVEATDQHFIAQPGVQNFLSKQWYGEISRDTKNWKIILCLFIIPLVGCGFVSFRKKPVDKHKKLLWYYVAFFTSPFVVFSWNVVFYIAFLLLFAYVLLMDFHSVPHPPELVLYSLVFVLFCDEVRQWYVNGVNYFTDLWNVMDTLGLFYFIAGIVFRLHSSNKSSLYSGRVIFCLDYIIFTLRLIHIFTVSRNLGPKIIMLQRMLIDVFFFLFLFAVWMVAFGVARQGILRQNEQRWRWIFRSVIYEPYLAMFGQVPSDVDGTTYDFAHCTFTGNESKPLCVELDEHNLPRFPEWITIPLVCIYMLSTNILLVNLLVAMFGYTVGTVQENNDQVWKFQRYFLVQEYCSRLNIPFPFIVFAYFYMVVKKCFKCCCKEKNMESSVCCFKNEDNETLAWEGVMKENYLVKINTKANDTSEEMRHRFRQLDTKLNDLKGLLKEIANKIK

SMILES	Relative Viability (%) at 10 μM [%]
CC(C)[C@@H]1CC[C@@H](C)C[C@H]1OC(=O)N1CCc2ccccc2C1 [compound 1457]	112
CC(C)[C@@H]1CC[C@@H](C)C[C@H]1OC(=O)N1CCCc2ccccc21 [compound 1465]	90
CC(C)[C@@H]1CC[C@@H](C)C[C@H]1OC(=O)N1c2ccccc2CC1C (stereo partly drawn) [compound 1475]	100
CC(C)[C@@H]1CC[C@@H](C)C[C@H]1OC(=O)N1CCc2ccccc21 [compound 1504]	90
CC(C)[C@@H]1CC[C@@H](C)CC1C(=O)N1c2ccccc2CC1C (stereo partly drawn) [compound 1588]	88
CC(NC(=O)CO[C@@H]1C[C@H](C)CC[C@H]1C(C)C)c1ccccc1 (stereo partly drawn) [compound 1664]	107
CC(C)[C@@H]1CC[C@@H](C)C[C@H]1OCC(=O)NCc1ccccc1Cl [compound 1669]	86
COc1ccccc1CNC(=O)CO[C@@H]1C[C@H](C)CC[C@H]1C(C)C [compound 1673]	112
CC(C)[C@@H]1CC[C@@H](C)C[C@H]1OCC(=O)N1CCc2ccccc2C1 [compound 1688]	91
CC(C)[C@@H]1CC[C@@H](C)C[C@H]1OCC(=O)N1c2ccccc2CC1C (stereo partly drawn) [compound 1691]	92
CC(C)[C@@H]1CC[C@@H](C)C[C@H]1OCC(=O)N1CCCc2ccccc21 [compound 1696]	82
COc1ccccc1NC(=O)CO[C@@H]1C[C@H](C)CC[C@H]1C(C)C [compound 1709]	95
CC(C)[C@@H]1CC[C@@H](C)C[C@H]1OCC(=O)NCCC1=CCCCC1 [compound 1743]	97
CC(C)[C@@H]1CC[C@@H](C)C[C@H]1OCC(=O)NCC1(c2ccccc2)CCCC1 [compound 1745]	88
CC(C)[C@@H]1CC[C@@H](C)C[C@H]1NC(=O)N1c2ccccc2CC1C (stereo partly drawn) [compound 1781]	91
CC(C)[C@@H]1CC[C@@H](C)C[C@H]1NC(=O)NCCN1CCCc2ccccc21 [compound 1815]	87
CC(C)[C@@H]1CC[C@@H](C)C[C@H]1NC(=O)N1CCc2ccccc2C1 [compound 1819]	86

SMILES	Relative Viability (%) at 10 μM [%]
CCCC1c2cccn2CCC1C(=O)N[C@@H]1C[C@H](C)CC[C@H]1C(C)C (stereo partly drawn) [compound 1838]	88
CC(C)[C@@H]1CC[C@@H](C)C[C@H]1NC(=O)NC1CCCCCC1 [compound 1876]	86
CC(C)[C@@H]1CC[C@@H](C)C[C@H]1NC(=O)NCCCSC1CCCCC1 [compound 1882]	85
CC(C)[C@@H]1CC[C@@H](C)C[C@H]1NC(=O)NCCC1=CCCCC1 [compound 1883]	84
CC(C)[C@@H]1CC[C@@H](C)C[C@H]1NC(=O)NCCN(Cc1ccccc1)C(C)C [compound 1885]	97
CC(C)[C@@H]1CC[C@@H](C)C[C@H]1OCC(=O)N1CCn2cccc2C1C (stereo partly drawn) [compound 1918]	94
CC(C)CN(CCNC(=O)CO[C@@H]1C[C@H](C)CC[C@H]1C(C)C)CC(C)C [compound 1920]	81
Cc1ccccc1CCNC(=O)CO[C@@H]1C[C@H](C)CC[C@H]1C(C)C [compound 1923]	116
CC(C)[C@@H]1CC[C@@H](C)C[C@H]1OCC(=O)NCCc1cccs1 [compound 1925]	94
CCN(CCNC(=O)CO[C@@H]1C[C@H](C)CC[C@H]1C(C)C)c1cccc(C)c1 [compound 1937]	101
CC(C)[C@@H]1CC[C@@H](C)C[C@H]1OC(=O)N1CCn2cccc2C1C (stereo partly drawn) [compound 1940]	110
CCCC1c2cccn2CCN1C(=O)O[C@@H]1C[C@H](C)CC[C@H]1C(C)C (stereo partly drawn) [compound 1941]	98
CC(C)[C@@H]1CC[C@@H](C)C[C@H]1NC(=O)CCC1CCCC1 [compound 1996]	89
CC(C)[C@@H]1CC[C@@H](C)C[C@H]1NC(=O)[C@@H]1C[C@H]1c1ccccc1 [compound 2013]	95
CC(Oc1ccccc1)C(=O)N[C@@H]1C[C@H](C)CC[C@H]1C(C)C (stereo partly drawn) [compound 2018]	103
CCCCOc1ccc(C(=O)N[C@@H]2C[C@H](C)CC[C@H]2C(C)C)cc1 [compound 2044]	94

same assay, conditions: Table 3, Formula VII antagonists; 10 μM compound plus toxic concentration of control agonist, CHO/Trp-p8 cells, 37° C.; ATP level relative to DMSO

SMILES	Rel. Viab. (%) at 10 μM [%]
c1ccc(Cn2ncc3c(N4CCN(c5ccccn5)CC4)ncnc32)cc1 [compound 13]	91
O=[N+]([O-])c1ccc(N2CCN(c3ccc(C(F)(F)F)cc3[N+](=O)[O-])CC2)cc1NCc1ccccc1 [compound 27]	87
O=[N+]([O-])c1cc(Cl)ccc1N1CCN(c2ccc([N+](=O)[O-])c3cccnc23)CC1 [compound 34]	82
COc1ccccc1N1CCN(CC(O)COC2CC(C)CCC2C(C)C)CC1.Cl.Cl (stereo not drawn) [compound 36]	87
Clc1ccccc1N1CCN(c2ncnc3c2cnn3-c2ccccc2)CC1 [compound 51]	100
c1ccc(CNc2nc(N3CCN(c4ccccc4)CC3)nc3ccccc23)cc1 [compound 67]	102
Cc1nc(N2CCOCC2)nc(N2CCN(c3ccccc3)CC2)c1[N+](=O)[O-] [compound 69]	106
Cc1cc(N2CCN(c3cc(N4CCN(CCO)CC4)ccc3[N+](=O)[O-])CC2)c2ccccc2n1 [compound 74]	81
COc1ccc(N2CCN(CC(O)COC3CC(C)CCC3C(C)C)CC2)cc1.Cl.Cl (stereo not drawn) [compound 93]	111
Cc1ccc(C)n1-c1ccc(N2CCN(c3ccccc3)CC2)c([N+](=O)[O-])c1 [compound 103]	99
O=[N+]([O-])c1cc(S(=O)(=O)C(F)(F)F)ccc1N1CCN(c2ccccc2)CC1 [compound 107]	98
Fc1ccc(N2CCN(c3ncnc4c3cnn4-c3ccccc3)CC2)cc1 [compound 159]	95
N#Cc1nc(COc2ccccc2F)oc1N1CCN(c2ccccc2)CC1 [compound 711]	94
FC(F)(F)Oc1ccc(Nc2nc(N3CCCCCC3)nc(N3CCN(C45CC6CC(CC(C6)C4)C5)CC3)n2)cc1 [compound 809]	89
OC(F)(F)Oc1ccc(Nc2nc(N3CCCCCC3)nc(N3CCN(C45CC6CC(CC(C6)C4)C5)CC3)n2)cc1 [compound 812]	99
O=C1c2ccccc2-c2onc3c(N4CCN(C5CCCCC5)CC4)cc(Nc4ccc5c(c4)OCO5)c1c23 [compound 881]	82
O=C1c2ccccc2-c2onc3c(N4CCN(C5CCCCC5)CC4)cc(Nc4ccc5c(c4)OCCO5)c1c23 [compound 882]	86
Cc1ccc(C(c2sc3nc(C)nn3c2O)N2CCN(C(c3ccccc3)c3ccccc3)CC2)cc1 (stereo not drawn) [compound 1019]	87
Cc1nc2sc(C(c3ccc(Br)cc3)N3CCN(C(c4ccccc4)c4ccccc4)CC3)c(O)n2n1 (stereo not drawn) [compound 1021]	92
Cc1nc2sc(C(c3cccc(F)c3)N3CCN(C(c4ccccc4)c4ccccc4)CC3)c(O)n2n1 (stereo not drawn) [compound 1026]	92
Cc1nc2sc(C(c3cccc(O)c3)N3CCN(C(c4ccccc4)c4ccccc4)CC3)c(O)n2n1 (stereo not drawn) [compound 1027]	84
COc1cc(C(c2sc3nc(C)nn3c2O)N2CCN(C(c3ccccc3)c3ccccc3)CC2)cc(OC)c1OC (stereo not drawn) [compound 1028]	85
Cc1nc2sc(C(c3cccs3)N3CCN(C(c4ccccc4)c4ccccc4)CC3)c(O)n2n1 (stereo not drawn) [compound 1039]	84
O=C1CN(c2nc3ccccc3c(=O)n2Cc2ccccc2)CC(=O)N1CCc1ccccc1 [compound 1069]	86
Cc1ccc(C2C(=O)N(C3CCC(C)CC3)CC(=O)N2C2CCCC2)cc1 (stereo not drawn) [compound 1262]	86
O=C1C(c2ccc(F)cc2Cl)N(C2CCCc3ccccc32)C(=O)CN1C1CCCCCC1 (stereo not drawn) [compound 1280]	87
O=C1C(c2ccc(Cl)cc2)N(C2CCCCCC2)C(=O)CN1C1CCCC1 (stereo not drawn) [compound 1283]	100
O=C1C(c2ccc(Cl)cc2)N(C2CCCCC2)C(=O)CN1C1CCCC1 (stereo not drawn) [compound 1284]	95
Cc1cc(N2CCN(Cc3ccc4c(c3)SCO4)CC2)n2nc(C)c(-c3ccc(Br)cc3)c2n1 [compound 1313]	92
c1ccc(Cc2nc(N3CCN(c4ccccn4)CC3)c3c4c(sc3n2)CCCC4)cc1 [compound 1323]	88

Source: US8389730B2, “Compositions and methods for the treatment of disease associated with TRP-P8 expression” (Dendreon Corporation, priority 2003, dated 2013)
